The structures appear in SMILES notation.

One experiment concerns the target JAK1 (Homo sapiens (Human), UniProt P23458). Kind of experiment: JAK1 inhibitory activity, mobility shift assay, 1 mM ATP. The class given is biochemical. The settings on record: 1 mM ATP; Table 7. Here is the method: (§1) The JAK1 inhibitory activity and the JAK2 inhibitory activity of the amide compounds provided in the above examples were tested by the method below.
(§2) Specific steps are described below. • 1. A 1× Kinase buffer was formulated. • 2. Concentration gradients of the compound were formulated: a test compound with an initial concentration of 10000 nM (JAK1) or 30000 nM (JAK2) was diluted in a 384-well plate to a 100% DMSO solution with a 100-fold final concentration, wherein the compound was diluted by a fold of 3 to 10 concentrations. 250 nL of the compound with the 100-fold final concentration was transferred with a dispenser Echo 550 to the target plate. • 3. A kinase solution with a 2.5-fold final concentration was prepared with the 1× Kinase buffer. • 4. […] The plate was centrifuged at 1000 rpm for 30 s, shaken and uniformly mixed, and incubated for 10 min at room temperature. • 6. A mixed solution of ATP (the final concentration of ATP=1 mM) and Kinase substrate with a 5/3-fold final concentration was formulated with the 1× Kinase buffer. • 7. 15 μL of the mixed solution of ATP and the substrate with the 5/3-fold final concentration was added to initiate the reaction. • 8. The 384-well plate was centrifuged at 1000 rpm for 30 s, shaken and uniformly mixed, and incubated for respective times at room temperature. • 9. The kinase reaction was stopped by adding 30 μL of a detection termination solution, and the plate was centrifuged at 1000 rpm for 30 s and shaken and uniformly mixed. • 10. The conversion rate was read with Caliper EZ Reader and the half maximal inhibitory concentration (IC50) was calculated.

Another experiment has as its target JAK2 (Homo sapiens (Human), UniProt O60674). Kind of experiment: JAK2 inhibitory activity, mobility shift assay, 1 mM ATP. The settings on record: Table 7. It counts as biochemical. Here is the method: as §1, §2

JAK2, sequence (O60674 826-1132): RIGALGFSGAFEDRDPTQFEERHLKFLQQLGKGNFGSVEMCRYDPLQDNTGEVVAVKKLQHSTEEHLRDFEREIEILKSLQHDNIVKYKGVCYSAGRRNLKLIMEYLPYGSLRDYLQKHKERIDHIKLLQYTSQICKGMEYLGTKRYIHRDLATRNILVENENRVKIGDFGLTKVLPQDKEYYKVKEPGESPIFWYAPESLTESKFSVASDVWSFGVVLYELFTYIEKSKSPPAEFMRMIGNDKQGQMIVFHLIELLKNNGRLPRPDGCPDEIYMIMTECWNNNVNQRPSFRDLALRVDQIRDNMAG
JAK1, sequence (P23458 850-1154): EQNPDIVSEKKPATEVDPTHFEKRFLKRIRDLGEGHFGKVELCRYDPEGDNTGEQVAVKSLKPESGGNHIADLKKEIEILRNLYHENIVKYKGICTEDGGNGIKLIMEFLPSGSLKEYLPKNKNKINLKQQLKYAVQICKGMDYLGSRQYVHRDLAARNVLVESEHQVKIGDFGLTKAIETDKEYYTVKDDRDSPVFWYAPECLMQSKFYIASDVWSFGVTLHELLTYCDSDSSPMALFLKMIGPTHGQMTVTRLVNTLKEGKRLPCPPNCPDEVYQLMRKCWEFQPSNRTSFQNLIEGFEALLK

Usually IC50 stands for the point on the concentration scale where inhibition reaches its midpoint. Turning to `COc1nn(C)cc1Nc1ncc(F)c(-c2c[nH]c3c(NC(=O)[C@H]4CCCN4[C@H]4CCNC4)cccc23)n1` [Example 23, (2R,3′S)-N-(3-(5-fluoro-2-((3-methoxy-1-methyl-1H-pyrazol-4-yl)amino)pyrimidin-4-yl)-1H-indol-7-yl)-[1,3′-bipyrrolidine]-2-carboxamide], the IC50 at JAK1 turned out to be 59 nM; on JAK2 it was 5370 nM.

For `COc1nn(C)cc1Nc1ncc(F)c(-c2c[nH]c3c(NC(=O)[C@H]4CCCN4[C@@H]4CCN(C)C4)cccc23)n1` [Example 24, (2R,3′R)-N-(3-(5-fluoro-2-((3-methoxy-1-methyl-1H-pyrazol-4-yl)amino)pyrimidin-4-yl)-1H-indol-7-yl)-1′-methyl-[1,3′-bipyrrolidine]-2-carboxamide], the 50% inhibitory concentration (IC50) at JAK1 came to 40 nM; at JAK2 it was 14600 nM.

Consider `COc1nn(C)cc1Nc1ncc(F)c(-c2c[nH]c3c(NC(=O)[C@H]4CCCN4[C@H]4CCN(C)C4)cccc23)n1` [Example 25, (2R,3′S)-N-(3-(5-fluoro-2-((3-methoxy-1-methyl-1H-pyrazol-4-yl)amino)pyrimidin-4-yl)-1H-indol-7-yl)-1′-methyl-[1,3′-bipyrrolidine]-2-carboxamide], for which the IC50 is 68 nM at JAK1 and 12400 nM on JAK2.

Consider `COc1nn(C)cc1Nc1ncc(F)c(-c2c[nH]c3c(NC(=O)[C@H]4CC(F)(F)CN4[C@@H]4CCN(C)C4)cccc23)n1` [Example 26, (2R,3′R)-4,4-difluoro-N-(3-(5-fluoro-2-((3-methoxy-1-methyl-1H-pyrazol-4-yl)amino)pyrimidin-4-yl)-1H-indol-7-yl)-1′-methyl-[1,3′-bipyrrolidine]-2-carboxamide], for which the values for the IC50 at JAK1 and on JAK2 were 48 nM and 5490 nM, respectively.

Regarding `COc1nn(C)cc1Nc1ncc(F)c(-c2c[nH]c3c(NC(=O)[C@H]4CC(F)(F)CN4[C@H]4CCN(C)C4)cccc23)n1` [Example 27, (2R,3′S)-4,4-difluoro-N-(3-(5-fluoro-2-((3-methoxy-1-methyl-1H-pyrazol-4-yl)amino)pyrimidin-4-yl)-1H-indol-7-yl)-1′-methyl-[1,3′-bipyrrolidine]-2-carboxamide], the half-maximal inhibitory concentration (IC50) at JAK1 came out at 60 nM; at JAK2 it was 4400 nM.

As to `COc1nn(C)cc1Nc1ncc(C)c(-c2c[nH]c3c(NC(=O)[C@H]4CCCN4[C@@H]4CCN(C)C4)cccc23)n1` [Example 28, (2R,3′R)-N-(3-(2-((3-methoxy-1-methyl-1H-pyrazol-4-yl)amino)-5-methylpyrimidin-4-yl)-1H-indol-7-yl)-1′-methyl-[1,3′-bipyrrolidine]-2-carboxamide], the IC50 worked out at 40 nM on JAK1 and 16300 nM on JAK2.

As for `COc1nn(C)cc1Nc1ncc(C)c(-c2c[nH]c3c(NC(=O)[C@H]4CCCN4[C@H]4CCN(C)C4)cccc23)n1` [Example 29, (2R,3′S)-N-(3-(2-((3-methoxy-1-methyl-1H-pyrazol-4-yl)amino)-5-methylpyrimidin-4-yl)-1H-indol-7-yl)-1′-methyl-[1,3′-bipyrrolidine]-2-carboxamide], the figures for the IC50 on JAK1 and on JAK2 were 67 nM and 13400 nM, respectively.

Turning to `COc1nn(C)cc1Nc1ncc(C)c(-c2c[nH]c3c(NC(=O)[C@H]4C[C@H](F)CN4[C@H]4CCN(C)C4)cccc23)n1` [Example 31, (2R,3′S,4S)-4-fluoro-N-(3-(2-((3-methoxy-1-methyl-1H-pyrazol-4-yl)amino)-5-methylpyrimidin-4-yl)-1H-indol-7-yl)-1′-methyl-[1,3′-bipyrrolidine]-2-carboxamide], the figures for the IC50 at JAK1 and at JAK2 were 92 nM and 11900 nM, respectively.

Regarding `COc1nn(C)cc1Nc1ncc(C)c(-c2c[nH]c3c(NC(=O)[C@H]4CC(F)(F)CN4[C@H]4CCN(C)C4)cccc23)n1` [Example 33, (2R,3′S)-4,4-difluoro-N-(3-(2-((3-methoxy-1-methyl-1H-pyrazol-4-yl)amino)-5-methylpyrimidin-4-yl)-1H-indol-7-yl)-1′-methyl-[1,3′-bipyrrolidine]-2-carboxamide], the figures for the IC50 at JAK1 and at JAK2 were 39 nM and 3430 nM, respectively.

The values are drawn from patent US20230416237A1, “AMIDE COMPOUND, PHARMACEUTICAL COMPOSITION AND USE THEREOF” (SHENZHEN BO LI JIAN MEDICINE CO., LTD., priority 2020, published 2023).
